Reference: patent EP4741383A1, “COMPOUND AND USE THEREOF AS ANTI-CANCER DRUG” (Tyligand Bioscience (Shanghai) Limited, priority 2023, dated 2025)

How the values were obtained:
[1] = biological target: T1, SHP2 enzyme (catalytic domain, amino acid sequence 224-528) (Homo sapiens, UniProt Q06124); experiment: SHP2 enzyme inhibition assay (DiFMUP substrate, fluorescence); type: biochemical; conditions: for IC50: SHP2 catalytic domain, DiFMUP substrate, 30 min pre-incubation, read-out: S HP2 I C50; for SHP2 IC50 times lower than control compound 11a-1: relative to 11a-1, IC50 = 0.108 µM
T1 construct: purchased GenScript
T1 sequence (Q06124 224-528): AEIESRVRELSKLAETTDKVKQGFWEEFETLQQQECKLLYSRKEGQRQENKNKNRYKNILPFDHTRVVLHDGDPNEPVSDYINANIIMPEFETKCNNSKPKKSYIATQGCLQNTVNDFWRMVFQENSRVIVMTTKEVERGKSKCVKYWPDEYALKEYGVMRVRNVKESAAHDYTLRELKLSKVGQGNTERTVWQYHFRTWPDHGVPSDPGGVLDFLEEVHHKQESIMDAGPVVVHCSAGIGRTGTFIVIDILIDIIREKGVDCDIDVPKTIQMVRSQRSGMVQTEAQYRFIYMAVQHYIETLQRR
Outline: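 SHP2 catalytic domain (aa 224-528) preincubated 30 min at room temperature with compounds (10-point 3-fold series) in HEPES pH 7.2 buffer with NaCl, EDTA, DTT, BSA, Brij35. DiFMUP from 50 µM working solution added, 5 min reaction; fluorescence 340/450 nm; IC50 from nonlinear dose-response fit.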

KYSE520 = experiment: CellTiter-Glo cell proliferation inhibition, KYSE520; type: cell-based, human; conditions: Homo sapiens, KYSE-520; KYSE520 cells, 120 hours, CellTiter-Glo
Excerpt: In this study, the CellTiter-Glo® Luminescent Cell Viability Assay kit from Promega was used to evaluate the inhibitory effects of the disclosed compounds on the proliferation of cell lines KYSE520 (a human esophageal squamous cell carcinoma cell line dependent on SHP2 for growth), MeWo (a human malignant melanoma cell line), and MV4-11 (an RTK-mutant human acute monocytic leukemia cell line).
KYSE520 cells (Nanjing Kebaio Biotechnology Co., Ltd., Catalog #CBP60658) were thawed by rapidly shaking the cryovial in a 37 °C water bath to thaw within 1 minute. The thawed cell suspension was mixed homogeneously with RPMI 1640 medium (HyClone, Catalog #SH30027.01) containing 10% FBS (ExCell, Catalog #FND500), centrifuged at 1000 rpm for 5 minutes, and the supernatant was discarded. The cell pellet was resuspended in 5 mL of complete culture medium (RPMI 1640 medium containing 10% FBS) and placed in a cell culture flask with 25 cm^2 of bottom area, then cultured in a cell culture incubator at 37 °C, 95% humidity, and 5% CO2. Cell passaging was performed when the cell confluence reached approximately 80%. During cell passaging, the old culture medium was discarded, the cells were washed once with DPBS (Thermo Fisher, Catalog #14190-144), and 1 mL of trypsin (Thermo Fisher, Catalog #25200072) was added to digest the cells. When the cells dispersed into single cells and detached from the bottom of the culture flask, 3 mL of fresh complete culture medium was added to stop the digestion. After gently pipetting the cell suspension, 1/5 of the cell suspension was retained, 5 mL of fresh complete culture medium was added, and after mixing, the cells were placed in a cell culture flask for further culture. Cell plating was performed when the cell confluence again reached approximately 80%. During cell plating, following the cell passaging method, 1/5 of the cell suspension was retained for continued culture, and the remaining 4/5 of the cell suspension was placed in a 15 mL centrifuge tube. Cell viability was determined using the trypan blue exclusion method to ensure that cell viability was above 90%. A cell suspension with a density of 2.22 × 10^4 cells/mL was prepared using complete culture medium, and 135 µL of the cell suspension was added to a 96-well transparent flat-bottom black-walled cell culture plate (Greiner, Catalog #655090), resulting in a cell density of 3000 viable cells per well. A control group containing only complete culture medium without cells and compounds (i.e., culture medium control) and a control group containing cells but no compound (i.e., cell control) were set up. The cell plates were incubated overnight in a cell culture incubator. First, a 10 mM stock solution of the compound (Example compound and positive control compound 11a-1) in DMSO (Damas-beta, catalog #75927R) was serially diluted 3-fold to the 9th concentration, and a 10th concentration containing only DMSO (without compound) was also prepared as a control. Then, the DMSO solutions containing different concentrations of the compound were diluted 100-fold with complete culture medium, resulting in a 1% DMSO concentration in each solution. Finally, 15 µL of each solution was added to the corresponding wells of the cell culture plate, resulting in a starting compound concentration of 10 µM, with a 3-fold dilution between adjacent concentrations, and a final DMSO concentration of 0.1% in the cell culture plate. The cell plates were then incubated in the cell culture incubator for another 120 hours.
For endpoint detection, CellTiter-Glo reagent (Promega, catalog number #G7573, CellTiter-Glo® Luminescent Cell Viability Assay Kit) was melt and each cell plate was moved to room temperature for equilibration for 30 minutes. 75 µL (KYSE520 cells) or 50 µL (MeWo cells and MV 4-11 cells) of CellTiter-Glo was added to each well of the corresponding cell plate. The plates were shaken on a track-mounted shaker for 2 minutes to fully lyse the cells. […]

SMILES | IC50 [1] [nM] | SHP2 IC50 times lower than control compound 11a-1 [1] | IC50 (KYSE520) [µM]
CC1(O)CC2(CCN(c3ccc(NC(=O)C(=O)Nc4ccc(-c5cc6cc(F)c(-c7nnn[nH]7)cc6n5C5(C)CCC5)cc4)cc3)CC2)C1 [Example 95] | 61 | – | 0.113
CC1(O)CCC2(CCN(c3ccc(NC(=O)C(=O)Nc4ccc(-c5cc6cc(F)c(-c7nnn[nH]7)cc6n5C5(C)CCC5)cc4)cc3)CC2)CC1 [Example 111] | 94 | – | 0.105
O=C(Nc1ccc(-c2cc3cc(F)c(-c4nnn[nH]4)cc3n2C2CCC2)cc1)C(=O)Nc1ccc(N2CC3COCC3C2)cc1 (stereo not drawn) [Example 114] | 72 | – | 0.118
CC1(O)CC2CN(c3ccc(NC(=O)C(=O)Nc4ccc(-c5cc6cc(F)c(-c7nnn[nH]7)cc6n5C5(C)CCC5)cc4)cc3)CC2C1 (stereo not drawn) [Example 118] | 45 | – | 0.116
O=C(Nc1ccc(-c2ccsc2)cc1)C(=O)Nc1ccc(-c2cc3ccc(-c4nnn[nH]4)cc3n2C2CCC2)cc1 [Example 122] | 66 | – | 4.36
Cn1cc(-c2ccc(NC(=O)C(=O)Nc3ccc(-c4cc5cc(F)c(-c6noc(=O)[nH]6)cc5n4C4CCC4)cc3)cc2)cn1 [Example 123] | 141 | – | 0.243
Cn1cc(-c2ccc(NC(=O)C(=O)Nc3ccc(-c4cc5cc(F)c(-c6nnc(C(F)(F)F)[nH]6)cc5n4C4CCC4)cc3)cc2)cn1 [Example 124] | 716 | – | 0.661
O=C(Nc1ccc(-c2oc3cc(F)c(-c4nnn[nH]4)cc3c2C2CCC2)cc1)C(=O)Nc1ccc(N2CCC3(CCOC3)CC2)cc1 [Example 125] | 51 | – | 0.68
O=C(Nc1ccc(-c2ccsc2)cc1)C(=O)Nc1ccc(-c2cc3ccc(-c4nnn[nH]4)nc3n2C2CCC2)cc1 [Example 129] | 59 | – | 2.85
O=C(Nc1ccc(-c2ccsc2)cc1)C(=O)Nc1ccc(-c2oc3cc(F)c(-c4nnn[nH]4)cc3c2C2CCC2)cc1 [Example 130] | 25 | – | 0.422
O=C(Nc1ccc(-c2ccsc2)cc1)C(=O)Nc1ccc(-c2cc3cc(F)c(-c4nnn[nH]4)nc3n2C2CCC2)cc1 [Example 132] | 27 | – | 1.1
O=C(Nc1ccc(-c2ccsc2)cc1)C(=O)Nc1ccc(-c2sc3cc(F)c(-c4nnn[nH]4)cc3c2C2CCC2)cc1 [Example 133] | 69 | – | 0.688
O=C(Nc1ccc(-c2ccsc2)cc1)C(=O)Nc1ccc(-c2cc3cc(F)c(-c4nnn[nH]4)c(F)c3n2C2CCC2)cc1 [Example 134] | 69 | – | 0.334

Continued, in another order:

IC50 [1] [nM] | SHP2 IC50 times lower than control compound 11a-1 [1] | SMILES | IC50 (KYSE520) [µM]
58 | – | O=C(Nc1ccc(-c2cc3cc(F)c(-c4nnn[nH]4)cc3n2C2CCC2)cc1)C(=O)Nc1ccc(N2CCC3(CC2)CC(CO)C3)cc1 [Example 96] | 0.059
105 | – | CC1(n2c(-c3ccc(NC(=O)C(=O)Nc4ccc(N5CCC6(CC5)CC(CO)C6)cc4)cc3)cc3cc(F)c(-c4nnn[nH]4)cc32)CCC1 [Example 97] | 0.095
48 | – | O=C(Nc1ccc(-c2cc3cc(F)c(-c4nnn[nH]4)cc3n2C2CCC2)cc1)C(=O)Nc1ccc(N2CCC3(CCC(O)C3)CC2)cc1 (stereo not drawn) [Example 100] | 0.057
23 | 3-4 times | CC1(n2c(-c3ccc(NC(=O)C(=O)Nc4ccc(N5CCC6(CCC(O)C6)CC5)cc4)cc3)cc3cc(F)c(-c4nnn[nH]4)cc32)CCC1 (stereo not drawn) [Example 101] | 0.128
141 | – | COC1CC(n2c(-c3ccc(NC(=O)C(=O)Nc4ccc(N5CCC6(CCC(O)C6)CC5)cc4)cc3)cc3cc(F)c(-c4nnn[nH]4)cc32)C1 (stereo not drawn) [Example 103] | 0.042
30 | 3-4 times | O=C(Nc1ccc(-c2cc3cc(F)c(-c4nnn[nH]4)cc3n2C2CCC2)cc1)C(=O)Nc1ccc(N2CCC3(CCC(O)CC3)CC2)cc1 [Example 108] | 0.167
61 | – | CC1(n2c(-c3ccc(NC(=O)C(=O)Nc4ccc(N5CCC6(CCC(O)CC6)CC5)cc4)cc3)cc3cc(F)c(-c4nnn[nH]4)cc32)CCC1 [Example 109] | 0.107
77 | – | CC1(O)CCC2(CCN(c3ccc(NC(=O)C(=O)Nc4ccc(-c5cc6cc(F)c(-c7nnn[nH]7)cc6n5C5CCC5)cc4)cc3)CC2)CC1 [Example 110] | 0.109
63 | – | O=C(Nc1ccc(-c2cc3cc(F)c(-c4nnn[nH]4)cc3n2C2CCC2)cc1)C(=O)Nc1ccc(N2CC3CC(O)CC3C2)cc1 (stereo not drawn) [Example 116] | 0.092
71 | – | CC1(O)CC2CN(c3ccc(NC(=O)C(=O)Nc4ccc(-c5cc6cc(F)c(-c7nnn[nH]7)cc6n5C5CCC5)cc4)cc3)CC2C1 (stereo not drawn) [Example 117] | 0.104
